# Experimental data: EP0012161A1, “Application of 0-(2-nitro-4-methyl-phenyl)-0-methyl-N-isopropyl-phosphoroamido-thioat for inhibition of side growth of tobacco-plants” (BAYER AG, priority 1978, dated 1980)
# Columns and labels:
# Type in all cases: in vivo
# Tabak = assay: Inhibition of side shoot growth in tobacco, greenhouse spray test after decapitation; details: 504 h, decapitated plants sprayed to run-off, weight of side shoots after 3 weeks versus control, 100 % = no side shoots, read-out: Wuchshemmung in %
# From the text: Lösungsmittel: 30 Gewichtsteile Dimethylformamid Emulgator: 1 Gewichtsteil Polyoxyethylensorbitan-Monolaurat
# Zur Herstellung einer zweckmäßigen Wirkstoffzubereitung vermischt man 1 Gewichsteil Wirkstoff mit den angegebenen Mengen Lösungsmittel und.Emulgator und füllt mit Wasser auf die gewünschte Konzentration auf.
# Tabakpflanzen werden im Gewächshaus bis zur Entfaltung des 7. Laubblattes angezogen. In diesem Stadium wird die apikale Vegetationsspitze der Pflanzen entfernt und die Pflanzen werden bis zum Abtropfen mit den Wirkstoffzubereitungen besprüht. Nach 3 Wochen werden die Seitentriebe der Pflanzen herausgebrochen und gewogen. Das Gewicht der Seitentriebe der behandelten Pflanzen wird mit dem der Kontrollpflanzen verglichen. 100 % Hemmung bedeutet das Fehlen von Seitentrieben und 0 t ein Wachstum der Seitentriebe entsprechend dem der Kontrollpflanzen.
# Alnus glutinosa = assay: Growth inhibition in woody plants (Alnus glutinosa), greenhouse spray test; details: 1008 h, one-year seedlings sprayed to run-off, increase in growth measured after 6 weeks, 100 % = growth standstill, 0 % = growth as control, read-out: Wuchshemmung in %
# From the text: (§1) Lösungsmittel : 30 Gewichtsteile Dimethylformamid Emulgator: 1 Gewichtsteil Polyoxyethylen-SorbitanMonolaurat
# (§2) Zur Herstellung einer zweckmäßigen Wirkstoffzubereitung vermischt man 1 Gewichtsteil Wirkstoff mit den angegebenen Mengen Lösungsmittel und Emulgator und füllt mit Wasser auf die gewünschte Konzentration auf.
# (§3) Einjährige Sämlinge mit einer Wuchshöhe von 25 cm werden mit den Wirkstoffzubereitungen bis zum Abtropfen besprüht. Nach 6 Wochen Wachstum im Gewächshaus wird der Zuwachs gemessen und die Wuchshemmung in Prozent des Zuwachses der Kontrollpflanzen berechnet. 100 % bedeuten den Stillstand des Wachstums und 0 % ein Wachstum entsprechend dem der Kontrollpflanzen.
# Sojabohnen = assay: Growth inhibition in soybeans, greenhouse spray test; details: 504 h; active compound concentration 0,05 %; plants with first trifoliate leaf unfolded sprayed dripping wet; increase in growth measured after 3 weeks; 100 % = growth standstill; read-out: Wuchshemmung in %
# From the text: (§4) Lösungsmittel: 30 Gewichtsteile Dimethylformamid Emulgator: 1 Gewichtsteil Polyoxyethylen-SorbitanMonolaurat
# as §2
# (§5) Sojabohnenpflanzen werden im Gewächshaus bis zur vollen Entfaltung des ersten Folgeblattes angezogen. In diesem Stadium werden die Pflanzen tropfnaß mit den Wirkstoffzubereitungen besprüht. Nach 3 Wochen wird bei allen Pflanzen der Zuwachs gemessen und die Wuchshemmung in % des Zuwachses der Kontrollpflanzen berechnet. Es bedeuten 100 % den Stillstand des Wachstums und O % ein Wachstum entsprechend dem der Kontrollpflanzen.
# Weizen = assay: Growth inhibition in wheat, greenhouse spray test; details: 504 h; active compound concentration 0,05 %; plants at 2-leaf stage sprayed dripping wet; increase in growth measured after 3 weeks; 100 = growth standstill; read-out: Wuchshemmung in %
# From the text: as §4, §2
# as §5, with “Weizenpflanzen werden” for “Sojabohnenpflanzen werden”, “bis zum 2-BlattStadium” for “bis zur vollen Entfaltung des ersten Folgeblattes”, “100 t” for “100 %”, “und 0” for “und O”
# Acer pseudoplatanus = assay: Growth inhibition in woody plants (Acer pseudoplatanus), greenhouse spray test; details: 1008 h, one-year seedlings sprayed to run-off, increase in growth measured after 6 weeks, 100 % = growth standstill, 0 % = growth as control, read-out: Wuchshemmung in %
# From the text: as §1, §2, §3
# [1] = active compound concentration 0,4 %
# [2] = active compound concentration 0,1 %
structure (smiles),measurement,setting,value
COP(=S)(NC(C)C)Oc1ccc(C)cc1[N+](=O)[O-] (stereo not drawn),inhibition at 0.2 %,"Tabak; active compound concentration 0,2 %",92%
same,inhibition at 0.4 %,Tabak; [1],99%
same,inhibition at 0.6 %,"Tabak; active compound concentration 0,6 %",99%
same,inhibition at 0.1 %,Alnus glutinosa; [2],50%
same,inhibition at 0.4 %,Alnus glutinosa; [1],75%
same,inhibition at 0.05 %,Sojabohnen,80%
same,inhibition at 0.05 %,Weizen,35%
same,inhibition at 0.1 %,Acer pseudoplatanus; [2],65%
same,inhibition at 0.4 %,Acer pseudoplatanus; [1],83%
